In PubChem BioAssay (NCI) one finds TGI data, which are given here for 14 compounds.

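Tested at 5 concentrations; 48 h exposure; 96-well plates; endpoints linearly interpolated, else capped at highest concentration. Definition used: TGI = concentration required for complete inhibition of growth.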 Bounds are passed on as bounds.

Some test systems named below: SNB-19 CNS; SW-620 colon; K-562 leukemia; EKVX NSCLC; OVCAR-3 ovarian; LOX IMVI melanoma; NCI-H460 lung; SF-539 CNS; SR leukemia; CAKI-1 renal; MDA-MB-435; HS 578T breast.
Assay in all cases: NCI tumour cell line growth inhibition, 48 h

For `COc1c(C)cc2c(C(C)C)c(O)c(O)c(C=O)c2c1O`, the TGI in the assay on SNB-19 CNS is > 100 µM; in the assay with SW-620 colon, > 100 µM; in the assay with K-562 leukemia, 45.4 µM; in the assay with EKVX NSCLC it was 95.1 µM; in the assay with OVCAR-3 ovarian it was 49.5 µM; in the assay with LOX IMVI melanoma, 68.9 µM. For the same compound, the figures for the TGI in the assay with NCI-H460 lung and with SF-539 CNS were > 100 µM and 37.6 µM, respectively.
Turning to `CCOC(=O)C(=O)C=P(c1ccccc1)(c1ccccc1)c1ccccc1`, the TGI with SNB-19 CNS, in the assay with SW-620 colon, in the assay on K-562 leukemia, in the assay with SR leukemia, with EKVX NSCLC and in the assay on OVCAR-3 ovarian was > 100 µM in each case. In addition, the TGI with LOX IMVI melanoma, in the assay with NCI-H460 lung, in the assay on CAKI-1 renal and in the assay on SF-539 CNS was > 100 µM in each case.
Take `N#CCc1c(-c2ccccc2)n(S(=O)(=O)c2ccccc2)c2ccccc12`: the TGI in the assay on SNB-19 CNS, in the assay with SW-620 colon, in the assay with K-562 leukemia, with SR leukemia, with OVCAR-3 ovarian and in the assay on NCI-H460 lung was > 100 µM each time. The TGI in the assay on CAKI-1 renal and in the assay on SF-539 CNS was > 100 µM in each case.
With `N/N=C1\C(=O)N(Cc2ccccc2)C(=O)C1C(=O)NCc1ccccc1` (stereo not drawn), the TGI with SNB-19 CNS, with SW-620 colon, in the assay on K-562 leukemia, with SR leukemia, in the assay with EKVX NSCLC and in the assay with OVCAR-3 ovarian was > 100 µM throughout. For the same compound, the TGI in the assay with NCI-H460 lung and in the assay on SF-539 CNS was > 100 µM throughout.
As for `Cc1cc(S(=O)(=O)N2CCNNC2=O)c(S)cc1Cl`, the TGI with SNB-19 CNS, with SW-620 colon, in the assay with K-562 leukemia, with MDA-MB-435, with SR leukemia and in the assay on EKVX NSCLC was > 100 µM throughout. Moreover, the TGI in the assay on HS 578T breast, with OVCAR-3 ovarian, in the assay on LOX IMVI melanoma, in the assay with NCI-H460 lung, with CAKI-1 renal and in the assay with SF-539 CNS was > 100 µM in each case.
Turning to `CSC1NC(c2ccccc2)=C(C#N)C(=O)N1C1OCC(OC(C)=O)C(OC(C)=O)C1OC(C)=O` (stereo not drawn), the TGI with SNB-19 CNS, in the assay with SW-620 colon, in the assay with K-562 leukemia, in the assay with MDA-MB-435, in the assay on SR leukemia and in the assay with EKVX NSCLC was > 100 µM in each case. In addition, the TGI with HS 578T breast, in the assay on OVCAR-3 ovarian, in the assay on LOX IMVI melanoma, in the assay on NCI-H460 lung, in the assay with CAKI-1 renal and with SF-539 CNS was > 100 µM in each case.
With `Nc1ccc2[nH]c(-c3cccc(C(F)(F)F)c3)cc(=O)c2c1`, the TGI was > 100 µM in the assay on SNB-19 CNS; > 100 µM with SW-620 colon; 88.6 µM in the assay on MDA-MB-435; 97.8 µM in the assay with SR leukemia; > 100 µM in the assay on EKVX NSCLC; 65.6 µM with HS 578T breast. The TGI in the assay on LOX IMVI melanoma was > 100 µM; in the assay on NCI-H460 lung, > 100 µM; in the assay on CAKI-1 renal, > 100 µM; in the assay with SF-539 CNS, 53 µM.
Take `O=C(/C=C\c1cccc2ccccc12)c1ccc(F)cc1`: the TGI in the assay on SNB-19 CNS was 31 µM; in the assay on SW-620 colon it was 20.4 µM; in the assay on K-562 leukemia it was 33.2 µM; with EKVX NSCLC it was 35.2 µM; in the assay on OVCAR-3 ovarian, 30.9 µM; with NCI-H460 lung it was 33.2 µM. The TGI came out at 35.3 µM in the assay on CAKI-1 renal and 41.4 µM in the assay on SF-539 CNS.
As to `Cc1c[n+]2c3ccccc3c3ccccc3c2s1`, the TGI in the assay on SNB-19 CNS was 15.6 µM; in the assay on SW-620 colon it was > 75.5 µM; in the assay on K-562 leukemia, 44.5 µM; in the assay on SR leukemia, 32.3 µM; in the assay on EKVX NSCLC it was > 100 µM; in the assay on OVCAR-3 ovarian it was 12.9 µM. Also, the TGI in the assay with LOX IMVI melanoma came out at 41.9 µM; in the assay on NCI-H460 lung, 25.5 µM; in the assay on CAKI-1 renal, 31.5 µM; with SF-539 CNS, 16.6 µM.
`O=C/C1=C/C2=Cc3ccccc3C=C(/C=C(/C=O)C1)C2`: the TGI in the assay on SNB-19 CNS was > 100 µM; with SW-620 colon, > 100 µM; in the assay with K-562 leukemia it was > 100 µM; in the assay with EKVX NSCLC it was > 100 µM; with OVCAR-3 ovarian it was 98.4 µM; in the assay with LOX IMVI melanoma, > 100 µM. Moreover, the TGI in the assay with NCI-H460 lung, with CAKI-1 renal and in the assay on SF-539 CNS was > 100 µM in each case.
For `CCOC(=O)Cn1c2ccccc2c(=O)c2cc(C)c(C)c(C#N)c21`, the TGI with SNB-19 CNS, with SW-620 colon, in the assay on SR leukemia, in the assay with EKVX NSCLC, in the assay on OVCAR-3 ovarian and with LOX IMVI melanoma was > 100 µM throughout. Further, the TGI in the assay with NCI-H460 lung and in the assay with SF-539 CNS was > 100 µM throughout.
As for `CC12C3C4C1C1C2C3C41CO` (stereo not drawn), the TGI in the assay with SNB-19 CNS, in the assay with SW-620 colon, in the assay with K-562 leukemia, in the assay on MDA-MB-435, with SR leukemia and in the assay on EKVX NSCLC was > 100 µM each time. Besides, the TGI with OVCAR-3 ovarian, with LOX IMVI melanoma, in the assay on NCI-H460 lung, in the assay with CAKI-1 renal and in the assay on SF-539 CNS was > 100 µM in each case.
On to `Cc1cccc(-n2c(N)c(-c3nc4ccccc4[nH]3)sc2=S)c1`, for which the TGI in the assay with SNB-19 CNS is > 100 µM; in the assay with SW-620 colon, 99.2 µM; with K-562 leukemia, > 100 µM; in the assay on EKVX NSCLC, 82.7 µM; in the assay with OVCAR-3 ovarian, 62.1 µM; with LOX IMVI melanoma it was 58 µM. The values for the TGI in the assay with CAKI-1 renal and in the assay with SF-539 CNS were 90.5 µM and 37 µM, respectively.
In the case of `N#CC(/C(CCC(=O)Nc1ccc(Cl)cc1)=N/NC(=O)c1cc2ccccc2cc1O)c1ccccc1` (stereo not drawn), the TGI in the assay with SNB-19 CNS is > 100 µM; in the assay on SW-620 colon, > 100 µM; with EKVX NSCLC, > 100 µM; in the assay with OVCAR-3 ovarian, > 100 µM; in the assay with LOX IMVI melanoma it was 73.1 µM; in the assay with NCI-H460 lung, > 100 µM.
